Test results as given in paper PMC12143348, “Rapid and reversible fluorescent probe enables repeated snapshot imaging of AMPA receptors during synaptic plasticity” (Science Advances, 2025).

Molecular target: T1, GluA2flip(Q) (Mus musculus, UniProt P23819, DEL765-802)
T1 construct: expressed in transfected cells; host or cells: HEK293T
Assay: Concentration-dependent binding of fluorophore-ligand conjugates, confocal live imaging of HEK293T cells expressing GluA2
Experimental: HEK293T cells were cotransfected with plasmids for AMPAR [5′UTR-GluA1^flip(R)-3′UTR, GluA2^flip(Q)-3′UTR, GluA3^flip(Q) (Y454A/R461G), and GluA4^flip(Q)], kainate receptor [GluK2(Q)], auxiliary subunits, or the control vector and transfection marker (EFGP-F or mCherry-F). Fluorophore-ligand conjugates were diluted in Hepes-buffered saline (HBS) buffer [20 mM Hepes (pH 7.4), 107 mM NaCl, 6 mM KCl, 1.2 mM MgSO4, 2 mM CaCl2, and 11.5 mM glucose] and added to the cells. Confocal live imaging was performed with LSM900 (Carl Zeiss) equipped with a 63×, numerical aperture (NA) = 1.4 oil-immersion objective. Fluorescence images were acquired by excitation at 405, 488, 561, or 640 nm derived from diode lasers.
For evaluating the concentration dependency of fluorophore-ligand conjugates, 0.1 nM probe in HBS was added to the dish. Then, probes in HBS were added stepwise to the dish to a final concentration of 0.3, 1, 3, 10, 30, 100, 300, 1000, and 3000 nM. Cell surface fluorescence intensity was quantified from the line scans of transfection marker positive cells and calculated with subtraction of background by ZEN blue software (Carl Zeiss). The membrane intensity was fitted with KaleidaGraph (Synergy software) to calculate the equilibrium constant value using the following equation: a + (b − a)/(1 + (x/c)^d). The equilibrium constant is regarded as the Kd in this study.

T1 sequence (P23819 with tags, fused parts or gaps isoform P23819-4 DEL765-802): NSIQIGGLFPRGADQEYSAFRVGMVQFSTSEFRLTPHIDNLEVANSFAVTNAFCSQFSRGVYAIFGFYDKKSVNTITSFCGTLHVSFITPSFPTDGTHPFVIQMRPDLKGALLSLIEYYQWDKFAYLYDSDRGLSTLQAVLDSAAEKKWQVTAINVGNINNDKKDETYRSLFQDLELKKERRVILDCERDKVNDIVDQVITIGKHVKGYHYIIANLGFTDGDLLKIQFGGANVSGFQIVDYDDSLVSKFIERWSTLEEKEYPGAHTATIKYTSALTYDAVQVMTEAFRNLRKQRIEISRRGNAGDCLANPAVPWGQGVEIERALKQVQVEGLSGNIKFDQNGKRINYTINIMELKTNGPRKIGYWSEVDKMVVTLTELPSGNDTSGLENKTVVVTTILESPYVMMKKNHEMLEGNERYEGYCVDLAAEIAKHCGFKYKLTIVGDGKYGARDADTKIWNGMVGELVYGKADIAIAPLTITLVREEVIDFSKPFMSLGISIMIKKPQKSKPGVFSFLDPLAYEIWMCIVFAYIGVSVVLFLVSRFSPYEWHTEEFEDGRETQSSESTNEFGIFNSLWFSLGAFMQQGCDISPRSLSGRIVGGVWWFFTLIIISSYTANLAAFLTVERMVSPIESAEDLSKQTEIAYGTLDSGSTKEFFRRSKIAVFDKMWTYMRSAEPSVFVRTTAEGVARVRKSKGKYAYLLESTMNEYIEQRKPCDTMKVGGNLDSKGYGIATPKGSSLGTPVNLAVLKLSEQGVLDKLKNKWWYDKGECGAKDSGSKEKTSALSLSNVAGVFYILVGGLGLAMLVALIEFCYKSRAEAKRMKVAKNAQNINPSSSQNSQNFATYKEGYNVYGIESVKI

N=c1ccc2c(-c3ccc(C(=O)NCc4ccn(-c5cc6c(cc5C(F)(F)F)[nH]c(=O)c(=O)n6CC(=O)O)c4)cc3C(=O)O)c3ccc(N)c(S(=O)(=O)O)c3oc-2c1S(=O)(=O)O [PFQX1(AF488)]
cell-surface fluorescence / affinity to AMPARs (in words) (HEK293T cells expressing GluA2): high affinity | Kd (HEK293T cells expressing GluA2flip(Q), cell-surface fluorescence, mean ± SEM, n = 3, read-out: dissociation constant (Kd) / Affinity to GluA2): 37.2 ± 9.8 nM
